The text below walks through data of patent US4659726A, “Novel 4,5-Bis (4-methoxyphenyl)-2-(pyrrol-2-yl) thiazoles and pharmaceutical composition containing the same” (Kanebo, Ltd., priority 1984, dated 1987).

Structures can show the parent of a compound that is named as a salt. Where two headings read alike, the source gives them in different places.

Series [1] relates to Platelet aggregation (arachidonate). Put plainly: Platelet aggregation inhibitory activity, ex vivo after oral administration to guinea pigs, sodium arachidonate as aggregating agent. It counts as in vivo, Hartley strain male guinea pigs. The settings on record: Cavia porcellus, read-out: Platelet aggregation inhibitory activity Arachidonate ED50. The protocol: (§1) Hartley strain male guinea pigs (weighing 300-350 g, one group: three animals) were fasted overnight, and to the animals were orally administered a solution or suspension of the test compounds in corn oil-10% arabic gum. […] The citrated blood thus obtained was centrifuged at 1,700 rpm for 10 minutes, and a platelet-rich plasma (PRP) was obtained from the supernatant. After isolating PRP, the remaining blood was further centrifuged at 3,000 rpm for 10 minutes, and a platelet-poor plasma (PPP) was obtained from the supernatant.
(§2) The PRP (450 μl) thus obtained was incubated at 37° C. for 3 minutes, and thereto was added 1.0 mM sodium arachidonate (50 μl) as an aggregating agent, and then the platelet aggregation thereof was measured with Platelet Aggregation Profiler® (Model PAP-3, manufactured by Bio Data Corp.) while using the PPP obtained above as a blank. As a control, as to animals to which no test compound was administered, the platelet aggregation rate was measured likewise.
(§3) The platelet aggregation inhibitory rate was calculated by the following equation. [formula]

The subject of series [2] is Platelet aggregation (collagen). Put plainly: Platelet aggregation inhibitory activity, ex vivo after oral administration to guinea pigs, collagen as aggregating agent. The series is classed as in vivo, Hartley strain male guinea pigs. The settings on record: Cavia porcellus, read-out: Platelet aggregation inhibitory activity Collagen ED50. The protocol: as §1, §2, §3
Moreover, the above method was repeated except that 100 μg/ml collagen suspension (50 μl) was used as an aggregating agent instead of sodium arachidonate.

Series [3] can be described thus: in vivo. The settings on record: mouse, oral, ddy male mice, deaths counted at 10 days, Weil method, read-out: Acute toxicity LD50. From the text:
ddy male mice (weighing 18-23 g, one group: 5 animals) were fasted overnight, and thereto was orally administered a suspension of the test compounds in 1% arabic gum solution.

Setting [4] is: oral, guinea pig, blood collected after 3 hours, 1.0 mM sodium arachidonate (50 μl), 50% inhibitory rate.
Setting [5] is: oral, guinea pig, blood collected after 3 hours, 100 μg/ml collagen suspension (50 μl), 50% inhibitory rate.

Broadly, the ED50 is the dose at which the effect has come halfway, by size or by number of responders. For orientation: LD50 means the dose expected to kill half of the subjects tested. As to `CC(=O)Oc1ccccc1C(=O)O` [Aspirin, reference compound], the ED50 in series [1] (po, 3 h) turned out to be 38.2 mg/kg; in series [2] (po, 3 h), 58.9 mg/kg. The LD50 at 240 h in series [3] worked out at 1060 mg/kg.

As to `COc1ccc(-c2nc(C(F)(F)F)sc2-c2ccc(OC)cc2)cc1` [Compd. A, 4,5-bis(4-methoxyphenyl)-2-trifluoromethylthiazole, reference compound], the figures for the ED50 in series [1] (setting [4]) and in series [2] (setting [5]) were 0.54 mg/kg and 1.29 mg/kg, respectively. Also, the LD50 at 240 h in series [3] was more than 3000 mg/kg.

As for `COc1ccc(-c2nc(-c3ccc(F)cc3)sc2-c2ccc(OC)cc2)cc1` [Compd. B, 4,5-bis(4-methoxyphenyl)-2-(4-fluorophenyl)thiazole, reference compound], the ED50 in series [1] (setting [4]) was 1.24 mg/kg; in series [2] (setting [5]) it was 1.2 mg/kg. Also, the LD50 at 240 h in series [3] was more than 3000 mg/kg.

Turning to `COc1ccc(-c2nc(-c3cccn3C)[nH]c2-c2ccc(OC)cc2)cc1` [Compd. C, 4,5-bis(4-methoxyphenyl)-2-(1-methylpyrrol-2-yl)imidazole, reference compound], the ED50 was found to be 1.21 mg/kg in series [1] (setting [4]) and 2.51 mg/kg in series [2] (setting [5]). Besides, the LD50 at 240 h in series [3] was more than 3000 mg/kg.

With `CCn1cccc1-c1nc(-c2ccc(OC)cc2)c(-c2ccc(OC)cc2)s1` [Ex. 1, 4,5-Bis(4-methoxyphenyl)-2-(1-ethylpyrrol-2-yl)-thiazole], the ED50 turned out to be 0.47 mg/kg in series [1] (setting [4]) and 0.91 mg/kg in series [2] (setting [5]). Further, the LD50 at 240 h in series [3] was more than 3000 mg/kg.

Take `COc1ccc(-c2nc(-c3cccn3C(C)C)sc2-c2ccc(OC)cc2)cc1` [Ex. 2, 4,5-Bis(4-methoxyphenyl)-2-(1-isopropylpyrrol-2-yl)thiazole]: the ED50 is 0.29 mg/kg in series [1] (setting [4]) and 0.63 mg/kg in series [2] (setting [5]). Moreover, the LD50 at 240 h in series [3] is more than 3000 mg/kg.

For the compound `CCCn1cccc1-c1nc(-c2ccc(OC)cc2)c(-c2ccc(OC)cc2)s1` [Ex. 3, 4,5-Bis(4-methoxyphenyl)-2-(1-n-propylpyrrol-2-yl)thiazole], the ED50 was determined as 0.32 mg/kg in series [1] (setting [4]) and 0.52 mg/kg in series [2] (setting [5]). For the same compound, in series [3], the median lethal dose (LD50) at 240 h is more than 3000 mg/kg.

In the case of `COc1ccc(-c2nc(-c3cccn3CC(C)C)sc2-c2ccc(OC)cc2)cc1` [Ex. 4, 4,5-Bis(4-methoxyphenyl)-2-(1-isobutylpyrrol-2-yl)thiazole], the ED50 in series [1] (setting [4]) was 0.41 mg/kg; in series [2] (setting [5]) it was 0.78 mg/kg. For the same compound, in series [3], the LD50 at 240 h is more than 3000 mg/kg.

In the case of `C=CCn1cccc1-c1nc(-c2ccc(OC)cc2)c(-c2ccc(OC)cc2)s1` [Ex. 5, 4,5-Bis(4-methoxyphenyl)-2-(1-allylpyrrol-2-yl)-thiazole], the ED50 in series [1] (setting [4]) came to 0.4 mg/kg; in series [2] (setting [5]), 0.55 mg/kg. Further, the LD50 at 240 h in series [3] is more than 3000 mg/kg.

With `C#CCn1cccc1-c1nc(-c2ccc(OC)cc2)c(-c2ccc(OC)cc2)s1` [Ex. 6, 4,5-Bis(4-methoxyphenyl)-2-(1-propargylpyrrol-2-yl)thiazole], the ED50 in series [1] (setting [4]) was found to be 0.22 mg/kg; in series [2] (setting [5]), 0.92 mg/kg. Also, the LD50 at 240 h in series [3] was more than 3000 mg/kg.

Consider `COc1ccc(-c2nc(-c3cccn3CC(F)(F)F)sc2-c2ccc(OC)cc2)cc1` [Ex. 7, 4,5-Bis(4-methoxyphenyl)-2-[1-(2,2,2-trifluoroethyl)pyrrol-2-yl]thiazole], for which the median effective dose (ED50) in series [1] (setting [4]) was 0.47 mg/kg; in series [2] (setting [5]), 0.51 mg/kg. In series [3], the LD50 at 240 h is more than 3000 mg/kg.

In the case of `COC(=O)Cn1cccc1-c1nc(-c2ccc(OC)cc2)c(-c2ccc(OC)cc2)s1` [Ex. 13, methyl 2-[4,5-bis(4-methoxyphenyl)thiazol-2-yl]pyrrole-1-acetate], the results for the ED50 in series [1] (setting [4]) and in series [2] (setting [5]) were 0.26 mg/kg and 0.89 mg/kg, respectively. Moreover, the LD50 at 240 h in series [3] was more than 3000 mg/kg.

With `CCOC(=O)Cn1cccc1-c1nc(-c2ccc(OC)cc2)c(-c2ccc(OC)cc2)s1` [Ex. 14, ethyl 2-[4,5-bis(4-methoxyphenyl)thiazol-2-yl]pyrrole-1-acetate], the results for the ED50 in series [1] (setting [4]) and in series [2] (setting [5]) were 0.088 mg/kg and 0.19 mg/kg, respectively. The LD50 at 240 h in series [3] was more than 3000 mg/kg.

As to `CCCOC(=O)Cn1cccc1-c1nc(-c2ccc(OC)cc2)c(-c2ccc(OC)cc2)s1` [Ex. 15, n-Propyl 2-[4,5-bis(4-methoxyphenyl)thiazol-2-yl]-pyrrole-1-acetate], the ED50 in series [1] (setting [4]) amounted to 0.072 mg/kg; in series [2] (setting [5]) it was 0.11 mg/kg. For the same compound, the LD50 at 240 h in series [3] was more than 3000 mg/kg.

Turning to `COc1ccc(-c2nc(-c3cccn3CC(=O)OC(C)C)sc2-c2ccc(OC)cc2)cc1` [Ex. 16, isopropyl 2-[4,5-bis(4-methoxyphenyl)thiazol-2-yl]pyrrole-1-acetate], the ED50 came to 0.061 mg/kg in series [1] (setting [4]) and 0.11 mg/kg in series [2] (setting [5]). Also, in series [3], the LD50 at 240 h is more than 3000 mg/kg.

Take `CCCCOC(=O)Cn1cccc1-c1nc(-c2ccc(OC)cc2)c(-c2ccc(OC)cc2)s1` [Ex. 17, n-Butyl 2-[4,5-bis(4-methoxyphenyl)thiazol-2-yl]-pyrrole-1-acetate]: the ED50 in series [1] (setting [4]) is 0.15 mg/kg; in series [2] (setting [5]), 0.19 mg/kg. Further, in series [3], the LD50 at 240 h is more than 3000 mg/kg.

In the case of `COc1ccc(-c2nc(-c3cccn3CC(=O)OCC(C)C)sc2-c2ccc(OC)cc2)cc1` [Ex. 18, Isobutyl 2-[4,5-bis(4-methoxyphenyl)thiazol-2-yl]-pyrrole-1-acetate], the figures for the ED50 in series [1] (setting [4]) and in series [2] (setting [5]) were 0.072 mg/kg and 0.12 mg/kg, respectively. Also, in series [3], the LD50 at 240 h was more than 3000 mg/kg.

As for `CCC(C)OC(=O)Cn1cccc1-c1nc(-c2ccc(OC)cc2)c(-c2ccc(OC)cc2)s1` (centres unmarked) [Ex. 19, sec-Butyl 2-[4,5-bis(4-methoxyphenyl)thiazol-2-yl]pyrrole-1-acetate], the ED50 in series [1] (setting [4]) is 0.12 mg/kg; in series [2] (setting [5]), 0.11 mg/kg. The LD50 at 240 h in series [3] is more than 3000 mg/kg.

As to `CCCCCOC(=O)Cn1cccc1-c1nc(-c2ccc(OC)cc2)c(-c2ccc(OC)cc2)s1` [Ex. 20, n-pentyl 2-[4,5-bis(4-methoxyphenyl)thiazol-2-yl]pyrrole-1-acetate], the ED50 amounted to 0.28 mg/kg in series [1] (setting [4]) and 0.49 mg/kg in series [2] (setting [5]). Besides, the LD50 at 240 h in series [3] was more than 3000 mg/kg.

For `COc1ccc(-c2nc(-c3cccn3CC(=O)OCCC(C)C)sc2-c2ccc(OC)cc2)cc1` [Ex. 21, Isopentyl 2-[4,5-bis(4-methoxyphenyl)thiazol-2-yl]pyrrole-1-acetate], the ED50 came out at 0.12 mg/kg in series [1] (setting [4]) and 0.22 mg/kg in series [2] (setting [5]). For the same compound, in series [3], the LD50 at 240 h was more than 3000 mg/kg.

For the compound `COc1ccc(-c2nc(-c3cccn3CC(=O)OCC(C)(C)C)sc2-c2ccc(OC)cc2)cc1` [Ex. 22, Neopentyl 2-[4,5-bis(4-methoxyphenyl)thiazol-2-yl]pyrrole-1-acetate], the figures for the ED50 in series [1] (setting [4]) and in series [2] (setting [5]) were 0.11 mg/kg and 0.4 mg/kg, respectively. For the same compound, in series [3], the LD50 at 240 h is more than 3000 mg/kg.

As for `CCC(C)COC(=O)Cn1cccc1-c1nc(-c2ccc(OC)cc2)c(-c2ccc(OC)cc2)s1` (centres unmarked) [Ex. 23, 2-methyl-1-butyl 2-[4,5-bis(4-methoxyphenyl)thiazol-2-yl]pyrrole-1-acetate], the ED50 in series [1] (setting [4]) is 0.073 mg/kg; in series [2] (setting [5]) it was 0.14 mg/kg. For the same compound, the LD50 at 240 h in series [3] was more than 3000 mg/kg.

For the compound `CCCC(C)OC(=O)Cn1cccc1-c1nc(-c2ccc(OC)cc2)c(-c2ccc(OC)cc2)s1` (centres unmarked) [Ex. 24, 2-pentyl 2-[4,5-bis(4-methoxyphenyl)thiazol-2-yl]pyrrole-1-acetate], the ED50 in series [1] (setting [4]) came out at 0.12 mg/kg; in series [2] (setting [5]) it was 0.22 mg/kg. Besides, the LD50 at 240 h in series [3] was more than 3000 mg/kg.

Regarding `CCC(CC)OC(=O)Cn1cccc1-c1nc(-c2ccc(OC)cc2)c(-c2ccc(OC)cc2)s1` [Ex. 25, 3-pentyl 2-[4,5-bis(4-methoxyphenyl)thiazol-2-yl]pyrrole-1-acetate], the values for the ED50 in series [1] (setting [4]) and in series [2] (setting [5]) were 0.12 mg/kg and 0.34 mg/kg, respectively. Besides, the LD50 at 240 h in series [3] is more than 3000 mg/kg.

Consider `COc1ccc(-c2nc(-c3cccn3CC(=O)OC(C)C(C)C)sc2-c2ccc(OC)cc2)cc1` (centres unmarked) [Ex. 26, 3-methyl-2-butyl 2-[4,5-bis(4-methoxyphenyl)thiazol-2-yl]pyrrole-1-acetate], for which the ED50 is 0.26 mg/kg in series [1] (setting [4]) and 0.34 mg/kg in series [2] (setting [5]). In addition, in series [3], the LD50 at 240 h was more than 3000 mg/kg.

As for `CCCCCCOC(=O)Cn1cccc1-c1nc(-c2ccc(OC)cc2)c(-c2ccc(OC)cc2)s1` [Ex. 27, n-hexyl 2-[4,5-bis(4-methoxyphenyl)thiazol-2-yl]pyrrole-1-acetate], the ED50 in series [1] (setting [4]) came out at 0.21 mg/kg; in series [2] (setting [5]) it was 0.22 mg/kg. Moreover, the LD50 at 240 h in series [3] is more than 3000 mg/kg.

`CCCCCCCCOC(=O)Cn1cccc1-c1nc(-c2ccc(OC)cc2)c(-c2ccc(OC)cc2)s1` [Ex. 28, n-octyl 2-[4,5-bis(4-methoxyphenyl)thiazol-2-yl]pyrrole-1-acetate]: the ED50 in series [1] (setting [4]) is 0.39 mg/kg; in series [2] (setting [5]), 0.44 mg/kg. In addition, the LD50 at 240 h in series [3] was more than 3000 mg/kg.

For the compound `C=CCOC(=O)Cn1cccc1-c1nc(-c2ccc(OC)cc2)c(-c2ccc(OC)cc2)s1` [Ex. 29, allyl 2-[4,5-bis(4-methoxyphenyl)thiazol-2-yl]pyrrole-1-acetate], the ED50 in series [1] (setting [4]) was 0.047 mg/kg; in series [2] (setting [5]), 0.11 mg/kg. Further, in series [3], the LD50 at 240 h is more than 3000 mg/kg.

As for `Clc1ccccc1CN1CCc2sccc2C1` [Ticlopidine.HCl, Ticlopidine hydrochloride, reference compound], the ED50 in series [1] (setting [4]) was more than 300 mg/kg; in series [2] (setting [5]) it was 300 mg/kg.
